Patent US7928238B2, “1,2,3,4-tetrahydro-quinoline derivatives as CETP inhibitors” (Janssen Pharmaceutica NV, priority 2006, dated 2011)
pIC50: −log10 of the molar value. Where “and” joins values, the source holds several entries; their conditions need not be identical. Identical values can stand only once. Like-named read-outs stand apart in the source and are kept apart here.

Target: T1, CETP (Homo sapiens, UniProt P11597)
T1 construct: from tissue; host or cells: human plasma from normal volunteers
T1 sequence (P11597 18-493): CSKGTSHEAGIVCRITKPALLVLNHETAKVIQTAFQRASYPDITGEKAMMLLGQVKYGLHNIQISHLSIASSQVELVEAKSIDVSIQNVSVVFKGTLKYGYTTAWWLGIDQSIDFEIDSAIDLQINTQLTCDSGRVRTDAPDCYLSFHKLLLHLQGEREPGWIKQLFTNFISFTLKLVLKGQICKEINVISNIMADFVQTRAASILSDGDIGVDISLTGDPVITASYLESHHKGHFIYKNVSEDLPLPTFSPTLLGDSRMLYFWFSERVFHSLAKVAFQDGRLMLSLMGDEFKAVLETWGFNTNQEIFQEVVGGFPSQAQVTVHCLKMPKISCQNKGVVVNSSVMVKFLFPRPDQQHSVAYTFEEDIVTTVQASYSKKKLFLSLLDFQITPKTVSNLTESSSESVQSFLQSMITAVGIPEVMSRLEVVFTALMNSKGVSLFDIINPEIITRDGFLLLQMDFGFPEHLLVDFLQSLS
Assay: CETP in vitro assay (Amersham kit TRKQ7005; modified protocol in human plasma, [3H]CE-HDL transfer)
Assay type: biochemical
Settings: for pIC50: from plots of % control versus compound concentration
Description: The CETP inhibitory activity of the compounds was determined using a commercially available kit from Amersham Biosciences (Catalog #TRKQ7005).
Briefly, 80 μl of human plasma (obtained from normal volunteers), approximately 25 μg/ml (20 μl) of [^3H]CE-HDL (Amersham Biosciences from kit TRKQ7005) and 1 μl of compound dissolved in DMSO was incubated for at least 4 hrs at 37° C. and non-specific transfer was determined by incubating a corresponding plate at 4° C. (blank). After the incubation period, 10 μl of a solution of 1% Dextralip 50/0.5M MgCl2, pH 7.4 was added, vortexed and incubated at room temperature for 10 min. The plate was then centrifuged for 30 min at 10° C. at 300 rpm in a Sorvall RT6000B centrifuge. Fifty microliters of the supernatant was transferred to a Picoplate (Packard) containing 100 μl of Microscint 40 (Perkin Elmer) and mixed for 30 min using a plate mixer. The radioactivity was counted using a TopCount (Perkin Elmer) and the % control was determined in the samples using the following formula: % transfer relative to vehicle controls (% control)=[cpm blank−cpm test]/cpm blank/cpm control]×100. IC50s were calculated from plots of the % control versus compound concentration.

[1] = 1 μM compound, read-out: % Inhibition @ 1 μM

Structure (SMILES)	% Inhibition @ 1 μM (1 μM compound)	pIC50	inhibition at 1 µM [1] [%]	inhibition at 1 µM (read-out: % Inhibition @ 1 μM, 1 μM compound) [%]
N#Cc1cccc(-c2cccc3c2CCC(c2cccc(OC(F)(F)C(F)F)c2)N3CC(O)C(F)(F)F)c1 (stereo not drawn) [Compound 9, 3-[2-[3-(1,1,2,2-Tetrafluoro-ethoxy)-phenyl]-1-(3,3,3-trifluoro-2-hydroxy-propyl)-1,2,3,4-tetrahydro-quinolin-5-yl]-benzonitrile]	82% and 85%	6.75 and 6.53		
C[C@@H](O)CN1c2cccc(-c3cccc(F)c3)c2CC[C@@H]1c1cccc(OC(F)(F)C(F)F)c1 [Compound 77, (αR,2R)-5-(3-Fluorophenyl)-3,4-dihydro-α-methyl-2-[3-(1,1,2,2-tetrafluoroethoxy)phenyl]-1(2H)-quinolineethanol]	48%		38	
OC(CN1c2cccc(-c3cccc(OC(F)(F)F)c3)c2CCC1c1ccc(OC(F)(F)C(F)F)cc1)C(F)(F)F (stereo not drawn) [Compound 21, 1,1,1-Trifluoro-3-[2-[4-(1,1,2,2-tetrafluoro-ethoxy)-phenyl]-5-(3-trifluoromethoxy-phenyl)-3,4-dihydro-2H-quinolin-1-yl]-propan-2-ol]	5%			
OC(CF)CN1c2cccc(-c3cccc(OC(F)(F)F)c3)c2CCC1c1cccc(OC(F)(F)F)c1 (stereo not drawn) [Compound 50, 1-[2,5-Bis-(3-trifluoromethoxy-phenyl)-3,4-dihydro-2H-quinolin-1-yl]-3-fluoro-propan-2-ol]	13%			
C[C@@H](O)CN1c2cccc(-c3cccc(OC(F)(F)F)c3)c2CC[C@H]1c1cccc(OC(F)(F)F)c1 [Compound 54]			13	
OC(CN1c2cccc(-c3cccc(F)c3)c2CCC1c1cccc(OC(F)(F)C(F)F)c1)C(F)(F)F (stereo not drawn) [Compound 12, 1,1,1-Trifluoro-3-{5-(3-fluoro-phenyl)-2-[3-(1,1,2,2-tetrafluoro-ethoxy)-phenyl]-3,4-dihydro-2H-quinolin-1-yl}-propan-2-ol]	41% and 64%			
C[C@H](O)CN1c2cccc(-c3cccc(OC(F)(F)F)c3)c2CC[C@@H]1c1cccc(OC(F)(F)C(F)F)c1 [Compound 61]			0	
Oc1cccc(-c2cccc3c2CCC(c2cccc(OC(F)(F)C(F)F)c2)N3CC(O)C(F)(F)F)c1 (stereo not drawn) [Compound 42, 3-[2-[3-(1,1,2,2-Tetrafluoro-ethoxy)-phenyl]-1-(3,3,3-trifluoro-2-hydroxy-propyl)-1,2,3,4-tetrahydro-quinolin-5-yl]-phenol]	97% and 106%	6.64		
O[C@@H](CN1c2cccc(-c3cccc(F)c3)c2CC[C@@H]1c1cccc(OC(F)(F)C(F)F)c1)C(F)(F)F [Compound 82, (2R, αS)-3,4-Dihydro-2-[3-(1,1,2,2-tetrafluoroethoxy)phenyl]-5-[3-(fluoro)phenyl]-α-(trifluoromethyl)-1(2H)-quinolineethanol]	76%	6.91 and 7.03	84	
C[C@@H](O)CN1c2cccc(-c3cccc(OC(F)(F)F)c3)c2CC[C@@H]1c1cccc(OC(F)(F)F)c1 [Compound 53]	57% and 77% and 84%	7.05 and 6.70 and 7.07		
C[C@@H](O)CN1c2cccc(-c3cccc(Cl)c3)c2CC[C@H]1c1cccc(OC(F)(F)F)c1 [Compound 41]			3	
OC(CN1c2cccc(-c3cccc(Cl)c3)c2CCC1c1cccc(OC(F)(F)C(F)F)c1)C(F)(F)F (stereo not drawn) [Compound 15, 3-{5-(3-Chloro-phenyl)-2-[3-(1,1,2,2-tetrafluoro-ethoxy)-phenyl]-3,4-dihydro-2H-quinolin-1-yl}-1,1,1-trifluoro-propan-2-ol]	66%	7.17 and 7.23		68
CC(C)C(O)CN1c2cccc(-c3cccc(OC(F)(F)F)c3)c2CCC1c1cccc(OC(F)(F)F)c1 (stereo not drawn) [Compound 45, 1-[2,5-Bis-(3-trifluoromethoxy-phenyl)-3,4-dihydro-2H-quinolin-1-yl]-3-methyl-butan-2-ol]	74% and 84%	6.49		
CC(C)Oc1cccc(-c2cccc3c2CCC(c2cccc(OC(F)(F)C(F)F)c2)N3CC(O)C(F)(F)F)c1 (stereo not drawn) [Compound 69, 1,1,1-Trifluoro-3-{5-(3-isopropoxy-phenyl)-2-[3-(1,1,2,2-tetrafluoro-ethoxy)-phenyl]-3,4-dihydro-2H-quinolin-1-yl}-propan-2-ol]	18%			
OC(CN1c2cccc(-c3ccc(OC(F)(F)F)cc3)c2CCC1c1cccc(OC(F)(F)C(F)F)c1)C(F)(F)F (stereo not drawn) [Compound 8, 1,1,1-Trifluoro-3-[2-[3-(1,1,2,2-tetrafluoro-ethoxy)-phenyl]-5-(4-trifluoromethoxy-phenyl)-3,4-dihydro-2H-quinolin-1-yl]-propan-2-ol]	29% and 36%			
OC(CN1c2cccc(-c3ccc(C(F)(F)F)cc3)c2CCC1c1cccc(OC(F)(F)C(F)F)c1)C(F)(F)F (stereo not drawn) [Compound 4, 1,1,1-Trifluoro-3-[2-[3-(1,1,2,2-tetrafluoro-ethoxy)-phenyl]-5-(4-trifluoromethyl-phenyl)-3,4-dihydro-2H-quinolin-1-yl]-propan-2-ol]	1%			
C[C@@H](O)CN1c2cccc(-c3cccc(F)c3)c2CC[C@@H]1c1cccc(OC(F)(F)F)c1 [Compound 55]	34%	6.96	39	
OC(CN1c2cccc(-c3cccc(OC(F)(F)F)c3)c2CCC1c1cccc(OC(F)(F)C(F)F)c1)C(F)(F)F (single isomer, unassigned) [Compound 2, 1,1,1-Trifluoro-3-[2-[3-(1,1,2,2-tetrafluoro-ethoxy)-phenyl]-5-(3-trifluoromethoxy-phenyl)-3,4-dihydro-2H-quinolin-1-yl]-propan-2-ol]	86%	6.35 and 6.82		
OC(CN1c2cccc(-c3cccc(OC(F)(F)F)c3)c2CCC1C1CCCCC1)C(F)(F)F (stereo not drawn) [Compound 38, 3-[2-Cyclohexyl-5-(3-trifluoromethoxy-phenyl)-3,4-dihydro-2H-quinolin-1-yl]-1,1,1-trifluoro-propan-2-ol]	2%			
Oc1cccc(-c2cccc3c2CCC(c2cccc(OC(F)(F)C(F)F)c2)N3CC(O)C(F)(F)F)c1 (stereo not drawn) [Compound 43, 3-[2-[3-(1,1,2,2-Tetrafluoro-ethoxy)-phenyl]-1-(3,3,3-trifluoro-2-hydroxy-propyl)-1,2,3,4-tetrahydro-quinolin-5-yl]-phenol]	23%			
CCC1CCc2c(-c3cccc(OC(F)(F)F)c3)cccc2N1Cc1cccc(OC(F)(F)F)c1 (stereo not drawn) [Compound 39, 2-Ethyl-1-(3-trifluoromethoxy-benzyl)-5-(3-trifluoromethoxy-phenyl)-1,2,3,4-tetrahydro-quinoline]			17	
COC[C@@H](O)CN1c2cccc(-c3cccc(OC(F)(F)F)c3)c2CC[C@H]1c1cccc(OC(F)(F)F)c1 [Compound 52]			0	
OC(CN1c2cccc(-c3cccc(OC(F)(F)F)c3)c2CCC1C1CCCCC1)C(F)(F)F (stereo not drawn) [Compound 37, 3-[2-Cyclohexyl-5-(3-trifluoromethoxy-phenyl)-3,4-dihydro-2H-quinolin-1-yl]-1,1,1-trifluoro-propan-2-ol]	11%			
OC(CN1c2cccc(-c3cccc(OC(F)(F)F)c3)c2CCC1c1cccs1)C(F)(F)F (stereo not drawn) [Compound 34, 1,1,1-Trifluoro-3-[2-thiophen-2-yl-5-(3-trifluoromethoxy-phenyl)-3,4-dihydro-2H-quinolin-1-yl]-propan-2-ol]	12%			
OC(CCl)CN1c2cccc(-c3cccc(OC(F)(F)F)c3)c2CCC1c1cccc(OC(F)(F)F)c1 (stereo not drawn) [Compound 48, 1-[2,5-Bis-(3-trifluoromethoxy-phenyl)-3,4-dihydro-2H-quinolin-1-yl]-3-chloro-propan-2-ol]	0%			
OC(CN1c2cccc(-c3cccc(F)c3)c2CCC1c1cccc(OC(F)(F)C(F)F)c1)C(F)(F)F (stereo not drawn) [Compound 11, 1,1,1-Trifluoro-3-{5-(3-fluoro-phenyl)-2-[3-(1,1,2,2-tetrafluoro-ethoxy)-phenyl]-3,4-dihydro-2H-quinolin-1-yl}-propan-2-ol]	101% and 99% and 79%	7.15 and 7.02 and 6.73		
